Measurements: US20110002820A1, “EXTERIOR SURFACE TREATMENT SYSTEM” (priority 2008, published 2011)

Experiments:
Format in all cases: cell-based
Oscillatoria tenius = test: Algistatic concentration against algae
Trichoderma viridae = test: Fungicidal activity, minimum inhibitory concentration against fungi
Myrothecium verrucaria = test: as above
Chlorella vulgaris = test: Algistatic concentration against algae
Aspergillus niger = test: Fungicidal activity, minimum inhibitory concentration against fungi
Anabaena cylindrica = test: Algistatic concentration against algae
Chaetomium globosum = test: Fungicidal activity, minimum inhibitory concentration against fungi
Stiegeocionim sp. = test: Algistatic concentration against algae

For benzalkonium chloride [BAC], the Algistatic concentration (Oscillatoria tenius) was 0.6 ppm, the Minimum inhibitory concentration (Trichoderma viridae) was 75 ppm and the Minimum inhibitory concentration (Myrothecium verrucaria) was 150 ppm. It also gave an Algistatic concentration (Chlorella vulgaris) of 1.0 ppm, a Minimum inhibitory concentration (Aspergillus niger) of 75 ppm and an Algistatic concentration (Anabaena cylindrica) of 1.0 ppm. It also gave a Minimum inhibitory concentration (Chaetomium globosum) of 7 ppm and an Algistatic concentration (Stiegeocionim sp.) of 0.7 ppm.

`CCCCCCCCCC[N+](C)(C)CCCCCCCCCC.[Cl-]` [DDAC, didecyl dimethyl ammonium chloride] was tested, and the Algistatic concentration (Oscillatoria tenius) was 0.7 ppm, the MIC (Trichoderma viridae) was 20 µg/mL and the MIC (Myrothecium verrucaria; Albifimbria verrucaria) was 20 µg/mL. For the same molecule, the Algistatic concentration (Chlorella vulgaris) was 2.0 ppm, the MIC (Aspergillus niger) was 75 µg/mL and the Algistatic concentration (Anabaena cylindrica) was 0.2 ppm. It also gave an MIC (Chaetomium globosum) of 7 µg/mL and an Algistatic concentration (Stiegeocionim sp.) of 0.7 ppm.
